Assay results reported in BindingDB's records for doi:10.1016/s0960-894x(98)00106-1 (Oregon State University, 1999).
pIC50: −log10 of the molar value.

Assay: Compound was evaluated for the inhibition of L-pipecolate oxidase(LPO) isolated from frozen Rhesus monkey liver

Structure (SMILES): O=C(O)[C@H]1NC[C@@H]2O[C@@H]21 [(1R,2S,5S)-6-Oxa-3-aza-bicyclo[3.1.0]hexane-2-carboxylic acid]
- pIC50: 3.70
